Where two headings read alike, the source gives them in different places.
Columns and labels:
[1] = target: T1, CIB1 and αIIb interaction (CIB1-GST : F-αIIb peptide) (Homo sapiens, UniProt Q99828); experiment: FP assay, 1536-well qHTS format (primary and confirmatory screen); assay type: binding; details: for Curve Class (confirmatory screen) / CONFIRMATORY SCREEN Curve Class: qHTS curve class
T1 construct: made in house; host or cells: BL-21 plus RIL cells (E. coli)
T1 sequence (Q99828 1-191): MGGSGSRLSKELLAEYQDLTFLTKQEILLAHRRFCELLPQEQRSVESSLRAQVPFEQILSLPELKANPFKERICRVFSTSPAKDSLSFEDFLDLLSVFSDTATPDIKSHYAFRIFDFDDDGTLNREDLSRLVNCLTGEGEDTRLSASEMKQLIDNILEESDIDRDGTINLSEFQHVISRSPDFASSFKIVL

[2] = target: T2, GST-CIB1 : F-scrambled peptide (Homo sapiens, UniProt Q99828); experiment: FP scrambled-peptide counter screen, 1536-well format; assay type: binding; details: for Curve Class (counterscreen) / COUNTERSCREEN Curve Class: qHTS curve class; for COUNTERSCREEN Confirm?: YES/NO call; for Confirm? (counterscreen): YES/NO
T2 construct: made in house; host or cells: BL-21 plus RIL cells (E. coli)
T2 sequence (Q99828 1-191): T1 sequence (Q99828 1-191)

[3] = Table S3, confirmatory screen, YES/NO call
[4] = Table S3, confirmatory screen, a negative sign marks inhibitory curves
[5] = Table S3, confirmatory screen, negative = inhibition
[6] = Table S3, confirmatory screen, read-out: IC50 [μM] (confirmatory screen)
[7] = qHTS primary screen hits, Table S2, negative = inhibition
[8] = qHTS primary screen hits, Table S2, negative sign = inhibitory curve, several classes where COUNT > 1
[9] = qHTS primary screen hits, Table S2, read-out: IC50
[10] = Table S3, counterscreen, a negative sign marks inhibitory curves
[11] = Table S3, counterscreen, negative = inhibition
[12] = Table S3, counterscreen, read-out: IC50 [μM] (counterscreen)
[13] = confirmatory screen, YES/NO call
[14] = confirmatory screen, negative sign = inhibitory curve
[15] = confirmatory screen, negative = inhibition
[16] = confirmatory screen, read-out: CONFIRMATORY SCREEN IC50
[17] = qHTS primary screen hits, Table S2, negative sign = inhibitory curve
[18] = scrambled-peptide counterscreen
[19] = confirmatory screen, read-out: IC50 [μM] (confirmatory screen)
[20] = counterscreen, negative sign = inhibitory curve
[21] = qHTS FP screen hits, Table S2, negative = inhibition
[22] = qHTS FP screen hits, Table S2, one class per curve where COUNT > 1, negative sign = inhibitory curve
[23] = qHTS FP screen hits, Table S2, read-out: IC50
[24] = counterscreen, read-out: IC50 [μM] (counterscreen)

Row | Compound | Curve Class (confirmatory screen) [1, 4] | Efficacy (%) (confirmatory screen) [1, 5] | Efficacy (%) [1, 7] | Curve Class [1, 8] | IC50 [1, 9] | Curve Class (counterscreen) [2, 10] | Efficacy (%) (counterscreen) [2, 11] | IC50 [2, 12] | Efficacy (%) [1, 21] | Curve Class [1, 22] | IC50 [1, 23] | further results
1 | CO[C@H](C(=O)[C@@H](O)[C@@H](C)O)[C@@H]1Cc2cc3cc(C[C@H]4C[C@H](O[C@H]5C[C@@H](O)[C@H](O)[C@@H](C)O5)[C@@H](O)[C@@H](C)O4)c(C)c(O)c3c(O)c2C(=O)[C@H]1O[C@@H]1C[C@H](O[C@@H]2C[C@H](O[C@@H]3C[C@](O)(CO)[C@@H](O)[C@H](C)O3)[C@@H](O)[C@H](C)O2)[C@@H](O)[C@H](C)O1 [NCGC00162423-04] | -2.1 | -183% | -51% | -2.2 | 24.1 µM | -1.1 | -181% | 15.8 µM |  |  |  | Confirm? (confirmatory screen) [1, 3]: YES; IC50 [1, 6]: 31.6 µM
2 | Cc1ccc(C(=O)Nc2ccc(S(=O)(=O)O)c3cc(S(=O)(=O)O)cc(S(=O)(=O)O)c23)cc1NC(=O)c1cccc(NC(=O)Nc2cccc(C(=O)Nc3cc(C(=O)Nc4ccc(S(=O)(=O)O)c5cc(S(=O)(=O)O)cc(S(=O)(=O)O)c45)ccc3C)c2)c1 [NCGC00163318-03] |  |  | -22% |  | 0.7 µM |  |  |  |  |  |  | CONFIRMATORY SCREEN Confirm? [1, 13]: YES; CONFIRMATORY SCREEN Curve Class [1, 14]: -1.4; CONFIRMATORY SCREEN Efficacy (%) [1, 15]: -15%; IC50 [1, 16]: 7.9 µM; Curve Class [1, 17]: -1.4; COUNTERSCREEN Efficacy (%) [2, 18]: 16%; COUNTERSCREEN Confirm? [2, 18]: YES; COUNTERSCREEN Curve Class [2, 18]: 4
3 | CO[C@@]12[C@H](COC(N)=O)C3=C(C(=O)C(C)=C(N)C3=O)N1C[C@@H]1N[C@@H]12 [NCGC00163468-05] | 4 | -31% | -38% | -1.2 | 25.1 µM | 3 | 95% | 39.8 µM |  |  |  | 
4 | COC[C@H]1OC(=O)c2coc3c2[C@@]1(C)C1=C(C3=O)[C@@H]2CCC(=O)[C@@]2(C)C[C@H]1OC(C)=O [NCGC00163485-03] |  |  |  |  |  |  |  |  |  |  |  | IC50 [1, 19]: 28.2 µM; Efficacy (%) (counterscreen) ([2]; counterscreen): -20%; Confirm? (counterscreen) ([2]; counterscreen): YES; Curve Class (counterscreen) [2, 20]: 4
5 | O=C1c2cccc(O)c2C(=O)c2c(O)cc(CO)cc21 [NCGC00163510-03] | 4 | -18% |  |  |  | 4 | -8% |  | -33% | -1.2 | 9.6 µM | 
6 | C[C@H]1COC2=C1C(=O)C(=O)c1c2ccc2c1CCCC2(C)C [NCGC00163650-02] |  |  | -26% | -2.4 | 30.4 µM |  |  |  |  |  |  | CONFIRMATORY SCREEN Efficacy (%) ([1]; confirmatory screen): 0%; CONFIRMATORY SCREEN Curve Class ([1]; confirmatory screen): 4; COUNTERSCREEN Efficacy (%) ([2]; counterscreen): -18%; COUNTERSCREEN Curve Class ([2]; counterscreen): 4
7 | O=c1oc2ccccc2c(O)c1C(CC(O)c1ccc(-c2ccc(Br)cc2)cc1)c1ccccc1 (stereo not drawn) [NCGC00163939-02] |  |  | -58% | -2.2 | 79.4 µM |  |  |  |  |  |  | CONFIRMATORY SCREEN Confirm? [1, 13]: YES; CONFIRMATORY SCREEN Curve Class [1, 14]: -1.2; CONFIRMATORY SCREEN Efficacy (%) [1, 15]: -37%; IC50 [1, 16]: 12.6 µM; COUNTERSCREEN Efficacy (%) [2, 18]: 109%; COUNTERSCREEN Confirm? [2, 18]: YES; COUNTERSCREEN Curve Class [2, 18]: 3; IC50 ([2]; scrambled-peptide counterscreen, read-out: COUNTERSCREEN IC50): 89.1 µM
8 | O=C(O)Cc1ccc(CCNS(=O)(=O)c2ccc(Cl)cc2)cc1 [NCGC00165787-03] |  |  |  |  |  |  |  |  | -61% | -2.2 | 79.4 µM | CONFIRMATORY SCREEN Efficacy (%) ([1]; confirmatory screen): 14%; CONFIRMATORY SCREEN Curve Class ([1]; confirmatory screen): 4; COUNTERSCREEN Efficacy (%) ([2]; counterscreen): 0%; COUNTERSCREEN Curve Class ([2]; counterscreen): 4
9 | Cc1cc(C(C#N)c2ccc(Cl)cc2)c(Cl)cc1NC(=O)c1cc(I)cc(I)c1O (stereo not drawn) [NCGC00166312-02] | 4 | -32% |  |  |  |  | 117% | 31.6 µM | -35% |  |  | IC50 ([1]; IC50 [μM], qHTS FP screen hits, Table S2): 27 µM
10 | O=C1Nc2cc(Cl)ccc2Nc2cscc21 [NCGC00167991-01] |  |  | -66% | -2.2 | 79.4 µM |  |  |  |  |  |  | Efficacy (%) (confirmatory screen) ([1]; confirmatory screen): -75%; Confirm? (confirmatory screen) ([1]; confirmatory screen, YES/NO): YES; Curve Class (confirmatory screen) [1, 14]: -3; Efficacy (%) (counterscreen) ([2]; counterscreen): -57%; Curve Class (counterscreen) [2, 20]: -3; IC50 [2, 24]: 50.1 µM
11 | COC(=O)c1scc2c(O)cc(C(F)(F)F)nc12 [NCGC00168006-01] | -3 | -58% | -56% | -2.2 | 50.1 µM | -3 | -67% | 79.4 µM |  |  |  | Confirm? (confirmatory screen) [1, 3]: YES; IC50 [1, 6]: 70.8 µM
12 | COc1c(O)cccc1[C@H](O)C1CCN(CCc2ccc(F)cc2)CC1 [NCGC00168042-01] | -2.4 | -89% |  |  |  | -2.1 | -83% | 50.1 µM |  |  |  | Confirm? (confirmatory screen) [1, 3]: YES; IC50 [1, 6]: 50.1 µM
13 | CN1CCc2ccc3c4c2[C@]1(C)Cc1cccc(c1-4)OCO3 [NCGC00168048-01] | -2.1 | -118% |  |  |  | -2.1 | -136% | 31.6 µM | -100% | -2.1 | 39.8 µM | Confirm? (confirmatory screen) [1, 3]: YES
14 | O=C(NC1=CC(=O)[C@H]2O[C@H]2C1=O)c1ccccc1O [NCGC00168093-01] | -2.4 | -49% | -29% | -2.4 | 31.6 µM | -2.4 | -54% | 50.1 µM |  |  |  | Confirm? (confirmatory screen) [1, 3]: YES; IC50 [1, 6]: 56.2 µM
15 | CNc1ccc(C(=O)Oc2cc(ON=[N+]([O-])N(C)C)c([N+](=O)[O-])cc2[N+](=O)[O-])cc1 [NCGC00168169-02] |  |  |  |  |  |  |  |  | -30% | -1.2 | 22.4 µM | Efficacy (%) (confirmatory screen) ([1]; confirmatory screen): -42%; Confirm? (confirmatory screen) ([1]; confirmatory screen, YES/NO): YES; Curve Class (confirmatory screen) [1, 14]: -1.2; IC50 [1, 19]: 14.1 µM; Efficacy (%) (counterscreen) ([2]; counterscreen): -40%; Curve Class (counterscreen) [2, 20]: -2.2; IC50 [2, 24]: 39.8 µM
16 | CCCCC(CC)CNC(=N)NC(=N)NCCCCCCNC(=N)NC(=N)NCC(CC)CCCC.Cl.Cl.Cl (stereo not drawn) [NCGC00178352-06] |  |  |  |  |  |  |  |  | -55% | -1.2 | 22.4 µM | Efficacy (%) (confirmatory screen) ([1]; confirmatory screen): -86%; Confirm? (confirmatory screen) ([1]; confirmatory screen, YES/NO): YES; Curve Class (confirmatory screen) [1, 14]: -2.1; IC50 [1, 19]: 28.2 µM; Efficacy (%) (counterscreen) ([2]; counterscreen): 93%; Confirm? (counterscreen) ([2]; counterscreen): YES; Curve Class (counterscreen) [2, 20]: 3; IC50 [2, 24]: 100 µM
17 | CC1=C(O)C(=O)C=C2C1=CC=C1[C@@]2(C)CC[C@@]2(C)[C@@H]3C[C@](C)(C(=O)O)CC[C@]3(C)CC[C@]12C [NCGC00178913-04] |  |  |  |  |  |  |  |  | -84% | -3 | 34.1 µM | Efficacy (%) (confirmatory screen) ([1]; confirmatory screen): -135%; Confirm? (confirmatory screen) ([1]; confirmatory screen, YES/NO): YES; Curve Class (confirmatory screen) [1, 14]: -1.1; IC50 [1, 19]: 22.4 µM; Efficacy (%) (counterscreen) ([2]; counterscreen): -107%; Curve Class (counterscreen) [2, 20]: -2.1; IC50 [2, 24]: 44.7 µM
18 | C[C@@H]1CC[C@]2(C)C3(C)CC[C@@]2(OC3=O)[C@@]12C[C@H](c1ccoc1)OC2=O [NCGC00180662-03] | -1.2 | -44% |  |  |  | -1.2 | -44% | 8.9 µM | -33% | -1.2 | 10 µM | Confirm? (confirmatory screen) [1, 3]: YES; IC50 [1, 6]: 7.1 µM
19 | O=C(NNC(=O)c1nc2ccccc2[nH]1)OCc1ccccc1 [NCGC00181216-01] | 4 | -25% | -24% | -2.4 | 22.4 µM | 4 | -28% |  |  |  |  | 
20 | CC(C)(C)OC(=O)CC(=O)NNC(=O)c1nc2ccccc2[nH]1 [NCGC00181234-01] |  |  | -37% |  | 39.8 µM |  |  |  |  |  |  | CONFIRMATORY SCREEN Efficacy (%) ([1]; confirmatory screen): -10%; CONFIRMATORY SCREEN Curve Class ([1]; confirmatory screen): 4; Curve Class [1, 17]: -2.4; COUNTERSCREEN Efficacy (%) ([2]; counterscreen): -21%; COUNTERSCREEN Curve Class ([2]; counterscreen): 4
21 | Cc1cc2nc3ccc(N(C)C)cc3[s+]c2cc1N.Cl.[Cl-] [NCGC00181775-02] |  |  | -38% | -2.4 | 39.8 µM |  |  |  |  |  |  | Efficacy (%) (confirmatory screen) ([1]; confirmatory screen): -72%; Confirm? (confirmatory screen) ([1]; confirmatory screen, YES/NO): YES; Curve Class (confirmatory screen) [1, 14]: -2.2; IC50 [1, 19]: 22.4 µM; Efficacy (%) (counterscreen) ([2]; counterscreen): -83%; Curve Class (counterscreen) [2, 20]: -2.2; IC50 [2, 24]: 44.7 µM

Reference: publication PMC11249646, “Small-Molecule Disruptors of the Interaction between Calcium- and Integrin-Binding Protein 1 and Integrin αIIbβ3 as Novel Antiplatelet Agents” (ACS Pharmacology & Translational Science, 2024)
